Read-outs that look alike come from different tables or passages of the source.
Columns and labels:
HDAC1 = target: T1, HDAC1 (Homo sapiens, UniProt Q13547); assay: HDAC enzyme assay, in vitro biochemical
T1 construct: purchased BPS Biosciences
Procedure: (§1) In vitro biochemical assays were performed as described previously. Specifically, compounds were dissolved and diluted in assay buffer (50 mM HEPES, pH 7.4, 100 mM KCl, 0.001% Tween-20, 0.05% BSA, and 20 μM Tris (2-carboxyethyl) phosphine) to 6-fold the final concentration. […] The amount of substrate (acetyl-lysine tripeptide) used for each enzyme was equal to the Michaelis constant (Km), as determined by a titration curve. Substrate was diluted in assay buffer to 6-fold of the final concentration with 0.3 μM sequencing grade trypsin (Sigma-Aldrich). The substrate/trypsin mix was added to the enzyme/compound mix and the plate was shaken for 5 seconds and then placed into a SpectraMax M5 microtiter (Molecular Devices) plate reader. The enzymatic reaction was monitored over 30 minutes for release of […] after deacetylation of the lysine side chain in the peptide substrate, and the linear rate of the reaction was calculated.

HDAC2 = target: T2, HDAC2 (Homo sapiens, UniProt Q92769); assay: HDAC enzyme assay, in vitro biochemical
T2 construct: purchased BPS Biosciences
T2 sequence (Q92769 whole entry): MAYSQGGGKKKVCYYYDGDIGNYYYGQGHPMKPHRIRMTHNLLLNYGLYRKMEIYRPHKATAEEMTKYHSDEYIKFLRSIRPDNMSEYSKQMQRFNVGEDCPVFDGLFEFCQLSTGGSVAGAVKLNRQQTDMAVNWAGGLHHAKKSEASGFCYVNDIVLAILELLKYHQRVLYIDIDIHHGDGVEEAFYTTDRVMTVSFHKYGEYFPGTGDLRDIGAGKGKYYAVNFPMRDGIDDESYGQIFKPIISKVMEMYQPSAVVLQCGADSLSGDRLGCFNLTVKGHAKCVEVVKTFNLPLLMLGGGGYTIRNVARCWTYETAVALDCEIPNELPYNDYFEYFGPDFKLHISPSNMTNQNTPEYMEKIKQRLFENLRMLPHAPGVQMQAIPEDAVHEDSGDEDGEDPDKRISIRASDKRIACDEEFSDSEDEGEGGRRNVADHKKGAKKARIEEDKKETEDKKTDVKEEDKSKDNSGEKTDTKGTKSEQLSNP
Procedure: as §1

HDAC3 = target: T3, HDAC3 (Homo sapiens, UniProt O15379); assay: HDAC enzyme assay, in vitro biochemical; conditions: pre-incubated 24 hours at 4°C; n = 3; read-out: IC50 against HDAC3
T3 construct: purchased BPS Biosciences
T3 sequence (O15379 whole entry): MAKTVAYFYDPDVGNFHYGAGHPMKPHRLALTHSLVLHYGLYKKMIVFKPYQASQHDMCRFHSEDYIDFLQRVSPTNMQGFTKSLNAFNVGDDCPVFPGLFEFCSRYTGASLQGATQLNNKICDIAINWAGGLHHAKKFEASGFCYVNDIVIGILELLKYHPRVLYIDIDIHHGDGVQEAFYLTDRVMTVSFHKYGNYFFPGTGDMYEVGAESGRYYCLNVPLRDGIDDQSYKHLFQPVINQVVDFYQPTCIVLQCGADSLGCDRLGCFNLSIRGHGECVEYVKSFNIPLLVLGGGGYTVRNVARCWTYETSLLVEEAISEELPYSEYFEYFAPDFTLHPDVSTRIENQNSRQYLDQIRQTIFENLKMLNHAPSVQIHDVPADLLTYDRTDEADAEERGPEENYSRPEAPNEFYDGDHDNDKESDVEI
T3 sequence (Q9Y618 395-489 partner limits assumed): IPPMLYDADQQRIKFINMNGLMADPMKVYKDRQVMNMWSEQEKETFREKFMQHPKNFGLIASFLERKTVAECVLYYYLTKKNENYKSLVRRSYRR
Procedure: as §1

HDAC6 = target: T4, HDAC6 (Homo sapiens, UniProt Q9UBN7); assay: HDAC enzyme assay, in vitro biochemical; conditions: maximum concentration tested of 20 μM
T4 construct: purchased BPS Biosciences
T4 sequence (Q9UBN7 1-1215): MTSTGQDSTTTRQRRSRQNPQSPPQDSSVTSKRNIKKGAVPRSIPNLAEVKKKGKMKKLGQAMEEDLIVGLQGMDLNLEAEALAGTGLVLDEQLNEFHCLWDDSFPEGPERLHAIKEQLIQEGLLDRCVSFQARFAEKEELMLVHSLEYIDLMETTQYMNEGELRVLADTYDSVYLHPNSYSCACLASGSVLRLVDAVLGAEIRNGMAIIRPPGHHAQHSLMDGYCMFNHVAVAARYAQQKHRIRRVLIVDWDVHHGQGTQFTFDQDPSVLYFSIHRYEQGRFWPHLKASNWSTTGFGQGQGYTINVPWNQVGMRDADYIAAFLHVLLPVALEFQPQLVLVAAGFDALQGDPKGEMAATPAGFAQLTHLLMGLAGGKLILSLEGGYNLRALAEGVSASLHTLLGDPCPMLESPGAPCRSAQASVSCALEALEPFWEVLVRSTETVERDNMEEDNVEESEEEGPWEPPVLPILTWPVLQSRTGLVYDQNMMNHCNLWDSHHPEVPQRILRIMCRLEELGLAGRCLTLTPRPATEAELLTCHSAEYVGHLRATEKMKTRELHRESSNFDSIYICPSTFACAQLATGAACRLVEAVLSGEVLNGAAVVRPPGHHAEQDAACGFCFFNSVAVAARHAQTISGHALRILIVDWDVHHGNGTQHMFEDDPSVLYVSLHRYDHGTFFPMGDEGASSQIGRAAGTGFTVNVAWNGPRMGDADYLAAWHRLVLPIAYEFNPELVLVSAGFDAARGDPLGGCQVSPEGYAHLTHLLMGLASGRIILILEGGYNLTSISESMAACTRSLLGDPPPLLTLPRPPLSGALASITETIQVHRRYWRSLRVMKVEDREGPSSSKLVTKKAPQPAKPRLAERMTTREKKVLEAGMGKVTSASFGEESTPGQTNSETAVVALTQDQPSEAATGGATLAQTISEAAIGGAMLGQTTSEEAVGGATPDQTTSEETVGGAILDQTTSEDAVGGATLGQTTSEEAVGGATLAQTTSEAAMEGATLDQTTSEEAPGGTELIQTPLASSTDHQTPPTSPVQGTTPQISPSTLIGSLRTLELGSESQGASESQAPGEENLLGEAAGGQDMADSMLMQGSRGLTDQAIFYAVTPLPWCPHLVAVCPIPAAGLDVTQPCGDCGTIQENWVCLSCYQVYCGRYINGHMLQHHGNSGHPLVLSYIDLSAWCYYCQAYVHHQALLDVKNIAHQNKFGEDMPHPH
Procedure: as §1
(§2) biochemical assay for HDAC4, HDAC5, HDAC6, HDAC7, HDAC8, HDAC9 inhibition by ACY-1035.
(§3) (1 picture or pasted object on this page, not shown here)

HDAC8 = target: T5, HDAC8 (Homo sapiens, UniProt Q9BY41); assay: HDAC enzyme assay, in vitro biochemical; conditions: maximum concentration tested of 20 μM
T5 construct: purchased BPS Biosciences
T5 sequence (Q9BY41 1-377): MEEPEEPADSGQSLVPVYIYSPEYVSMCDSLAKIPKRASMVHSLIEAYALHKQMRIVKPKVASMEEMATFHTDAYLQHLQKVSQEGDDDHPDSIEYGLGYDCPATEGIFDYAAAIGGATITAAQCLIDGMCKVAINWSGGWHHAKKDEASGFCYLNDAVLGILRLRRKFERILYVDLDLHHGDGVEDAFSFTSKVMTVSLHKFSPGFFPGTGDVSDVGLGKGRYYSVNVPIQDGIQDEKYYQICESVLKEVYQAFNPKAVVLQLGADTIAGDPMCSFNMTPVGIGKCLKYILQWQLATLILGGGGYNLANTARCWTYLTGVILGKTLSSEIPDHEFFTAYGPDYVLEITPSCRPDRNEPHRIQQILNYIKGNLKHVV
Procedure: as §1, §2, §3

HDAC9 = target: T6, HDAC9 (Homo sapiens, UniProt Q9UKV0); assay: HDAC enzyme assay, in vitro biochemical; conditions: maximum concentration tested of 20 μM
T6 construct: purchased BPS Biosciences
T6 sequence (Q9UKV0 whole entry): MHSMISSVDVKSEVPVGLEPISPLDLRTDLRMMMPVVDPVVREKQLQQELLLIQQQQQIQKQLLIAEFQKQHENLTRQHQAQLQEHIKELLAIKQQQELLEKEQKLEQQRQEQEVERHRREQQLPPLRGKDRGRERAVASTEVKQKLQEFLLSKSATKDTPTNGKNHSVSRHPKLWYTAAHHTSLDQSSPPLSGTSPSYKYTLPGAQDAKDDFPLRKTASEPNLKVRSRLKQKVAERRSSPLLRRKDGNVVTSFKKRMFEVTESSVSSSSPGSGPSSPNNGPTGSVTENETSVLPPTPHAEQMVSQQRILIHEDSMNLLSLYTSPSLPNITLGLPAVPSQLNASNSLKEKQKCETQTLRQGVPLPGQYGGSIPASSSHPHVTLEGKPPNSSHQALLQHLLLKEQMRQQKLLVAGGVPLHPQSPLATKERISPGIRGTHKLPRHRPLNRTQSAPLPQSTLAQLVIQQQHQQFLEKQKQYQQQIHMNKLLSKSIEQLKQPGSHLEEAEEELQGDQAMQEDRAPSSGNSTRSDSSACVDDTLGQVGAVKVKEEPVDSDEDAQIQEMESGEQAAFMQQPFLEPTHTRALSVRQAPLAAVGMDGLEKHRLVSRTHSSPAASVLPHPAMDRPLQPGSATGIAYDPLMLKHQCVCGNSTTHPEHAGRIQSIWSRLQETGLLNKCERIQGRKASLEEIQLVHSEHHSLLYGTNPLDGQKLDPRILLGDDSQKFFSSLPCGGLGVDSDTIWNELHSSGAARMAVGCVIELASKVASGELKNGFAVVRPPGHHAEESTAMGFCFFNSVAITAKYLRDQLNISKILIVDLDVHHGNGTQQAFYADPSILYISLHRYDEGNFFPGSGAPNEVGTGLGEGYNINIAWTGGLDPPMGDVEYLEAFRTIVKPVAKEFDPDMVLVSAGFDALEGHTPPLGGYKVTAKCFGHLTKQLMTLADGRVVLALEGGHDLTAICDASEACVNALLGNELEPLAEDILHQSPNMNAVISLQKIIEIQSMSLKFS
Procedure: as §1, §2, §3

MV-4-11 and HL-60 cells [1] = assay: Flow cytometry, surface level of CD11b (differentiation); format: cell-based, human; conditions: single agent, 72 hours
Procedure: (§4) All compounds and/or solvent DMSO were added concurrently at the indicated doses. Flow cytometry was performed to measure surface level of CD11b, cell cycle distribution, and induction of apoptosis. CD11b and apoptosis were analyzed on a FC500 flow cytometer ([…]) and cell cycle profiled on an Attune NxT (Life Technologies).
The frequency of CD11b positive cells out of total viable cells identified by forward and side scatter profile was quantified.

MV-4-11 and HL-60 cells [2] = assay: Flow cytometry, apoptosis (Annexin V); format: cell-based, human; conditions: single agent, 96 hours
Procedure: as §4
Annexin V-positive populations were quantified.

[3] = tested on: five human AML cell lines (MV-4-11, Kasumi-1, HL-60, MOLM-13, NB-4); assay: Cell viability assay, summary over five human AML cell lines; conditions: 72 hours
Procedure: (§5) MV-4-11, Kasumi-1, and HL-60 AML cell lines were all obtained from ATCC. MOLM-13 and NB-4 cell lines were obtained from DSMZ. […] The identity of each cell line was validated and documented by the suppliers. All experiments were performed with cells maintained at low passage numbers.
(§6) Compounds and/or solvent dimethyl sulfoxide (DMSO) were added at the same time using an HP D300 digital dispenser (Hewlett Packard) in triplicate or quadruplicate and incubated for 72 hours at 37°C. Viability was measured by adding 25 μL CellTiter-Glo (Promega), incubating for 10 minutes, and measuring luminescence on a SpectraMax (Molecular Devices). […] CI < 1 indicates synergism, CI = 1 indicates additivity, and CI > 1 indicates antagonism.

MV-4-11 cells = assay: Cell viability assay (CellTiter-Glo), single agent and combination; conditions: read-out: IC50 cell viability MV-4-11; 72 hours
Procedure: as §5, §6

T1 sequence (Q13547 whole entry): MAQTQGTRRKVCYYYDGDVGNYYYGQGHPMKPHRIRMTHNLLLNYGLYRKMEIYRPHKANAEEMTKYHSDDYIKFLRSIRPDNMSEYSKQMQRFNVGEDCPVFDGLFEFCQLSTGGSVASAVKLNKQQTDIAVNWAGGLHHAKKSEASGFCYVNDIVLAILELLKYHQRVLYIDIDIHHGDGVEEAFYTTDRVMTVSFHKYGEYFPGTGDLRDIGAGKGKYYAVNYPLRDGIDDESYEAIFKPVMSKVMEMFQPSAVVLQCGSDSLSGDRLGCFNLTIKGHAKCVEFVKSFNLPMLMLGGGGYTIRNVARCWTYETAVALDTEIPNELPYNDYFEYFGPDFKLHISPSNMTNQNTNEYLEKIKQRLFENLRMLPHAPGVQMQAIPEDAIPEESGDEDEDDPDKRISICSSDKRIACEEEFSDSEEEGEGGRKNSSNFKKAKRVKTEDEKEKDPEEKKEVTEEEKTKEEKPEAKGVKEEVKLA

SMILES: Nc1ccc(-c2cccs2)cc1NC(=O)c1ccc2c(c1)cc(C1CC1)n2CCN1CCOCC1 [ACY-1035]
- selectivity for HDAC1 over HDAC3 (HDAC1): more than 150 fold
- IC50 (HDAC1; pre-incubated 24 hours at 4°C, n = 3, read-out: IC50 against HDAC1): 9.4 nM
- selectivity for HDAC2 over HDAC3 (HDAC2): approximately 50 fold
- IC50 (HDAC2; pre-incubated 24 hours at 4°C, n = 3, read-out: IC50 against HDAC2): 23 nM
- IC50 (HDAC3): 2000 nM
- inhibition of HDAC6 (HDAC6): did not inhibit
- inhibition of HDAC8 (HDAC8): did not inhibit
- inhibition of HDAC9 (HDAC9): did not inhibit
- differentiation, surface expression of CD11b (MV-4-11 and HL-60 cells [1]): dose-dependent induction of differentiation
- apoptosis, staining for annexin V (MV-4-11 and HL-60 cells [2]): increased staining for annexin V
- IC50 ([3]; read-out: IC50 values cell viability, range, five human AML cell lines, both compounds): 800 to 3300 nM
- IC50 ([3]; read-out: average IC50 value, viability of AML cells, average of five AML cell lines): 2600 nM
- IC50 (MV-4-11 cells): 1400 nM
